Results: patent US20110039721A1, “METHOD FOR PREDICTION ABOUT CARCINOGENICITY OF SUBSTANCE IN RODENT” (Chemicals Evaluation and Research Institute, priority 2007, published 2011)

How the values were obtained:
[1] = system: mRNA expressed from the genes (A) to (D) in rat liver; experiment: Behavior of genes (mRNA expression level, oligo-DNA microarray) in rat liver after 28-day oral administration; type: in vivo
Method in brief: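 Rat liver RNA after 28 days of daily gavage dosing (male F344, 5 weeks old, four per group). A change reaching 1.5-fold, or 1/1.5, against solvent control scores as significant; opposite direction versus another carcinogen scores as not significant.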

liver = settings: classification of the substance (Cr+/Cr−); cited from earlier work
rodent = settings: classification of the substance (C+/C−); cited from earlier work
[2] = classification of the substance (M+/M−); cited from earlier work
[3] = gene group (A), Unigene No. Rn.167075
[4] = gene group (C), Unigene No. Rn.120914

O=c1c(O)c(-c2ccc(O)c(O)c2)oc2cc(O)cc(O)c12 [TS037, Quercetin]
−: Behavior of gene caused by administration of chemical substance, Gene No. 4846 ([1]; gene group (A), Unigene No. Rn.144554) | Behavior of gene caused by administration of chemical substance, Gene No. 2026 [1, 3] | Behavior of gene caused by administration of chemical substance, Gene No. 4218 [1, 3] | Behavior of gene caused by administration of chemical substance, Gene No. 6182 ([1]; gene group (A), Unigene No. Rn.5834) | Behavior of gene caused by administration of chemical substance, Gene No. 5600 ([1]; gene group (A), Unigene No. Rn.9836) | Behavior of gene caused by administration of chemical substance, Gene No. 1494 ([1]; gene group (B), Unigene No. Rn.1430) | Behavior of gene caused by administration of chemical substance, Gene No. 2045 ([1]; gene group (B), Unigene No. Rn.19329) | Behavior of gene caused by administration of chemical substance, Gene No. 2203 ([1]; gene group (B), Unigene No. Rn.21240) | Behavior of gene caused by administration of chemical substance, Gene No. 533 ([1]; gene group (C), Unigene No. Rn.106184) | Behavior of gene caused by administration of chemical substance, Gene No. 725 ([1]; gene group (C), Unigene No. Rn.108075) | Behavior of gene caused by administration of chemical substance, Gene No. 1163 ([1]; gene group (C), Unigene No. Rn.11766) | Behavior of gene caused by administration of chemical substance, Gene No. 4973 ([1]; gene group (C), Unigene No. Rn.118529) | Behavior of gene caused by administration of chemical substance, Gene No. 4095 ([1]; gene group (C), Unigene No. Rn.119024) | Behavior of gene caused by administration of chemical substance, Gene No. 1334 [1, 4] | Behavior of gene caused by administration of chemical substance, Gene No. 6620 [1, 4] | Behavior of gene caused by administration of chemical substance, Gene No. 6303 ([1]; gene group (C), Unigene No. Rn.123063) | Behavior of gene caused by administration of chemical substance, Gene No. 5878 ([1]; gene group (C), Unigene No. Rn.143213) | Behavior of gene caused by administration of chemical substance, Gene No. 1131 ([1]; gene group (C), Unigene No. Rn.144946) | Behavior of gene caused by administration of chemical substance, Gene No. 1562 ([1]; gene group (C), Unigene No. Rn.14744) | Behavior of gene caused by administration of chemical substance, Gene No. 1741 ([1]; gene group (C), Unigene No. Rn.1647) | Behavior of gene caused by administration of chemical substance, Gene No. 893 ([1]; gene group (C), Unigene No. Rn.164817) | Behavior of gene caused by administration of chemical substance, Gene No. 6026 ([1]; gene group (C), Unigene No. Rn.167685) | Behavior of gene caused by administration of chemical substance, Gene No. 154 ([1]; gene group (C), Unigene No. Rn.185941) | Behavior of gene caused by administration of chemical substance, Gene No. 1993 ([1]; gene group (C), Unigene No. Rn.18728) | Behavior of gene caused by administration of chemical substance, Gene No. 813 ([1]; gene group (C), Unigene No. Rn.201760) | Behavior of gene caused by administration of chemical substance, Gene No. 2494 ([1]; gene group (C), Unigene No. Rn.23969) | Behavior of gene caused by administration of chemical substance, Gene No. 2546 ([1]; gene group (C), Unigene No. Rn.24561) | Behavior of gene caused by administration of chemical substance, Gene No. 3776 ([1]; gene group (C), Unigene No. Rn.43232) | Behavior of gene caused by administration of chemical substance, Gene No. 3929 ([1]; gene group (C), Unigene No. Rn.4620) | Behavior of gene caused by administration of chemical substance, Gene No. 1119 ([1]; gene group (C), Unigene No. Rn.9757) | Behavior of gene caused by administration of chemical substance, Gene No. 6742 ([1]; gene group (C), Unigene No. Rn.9779) | Behavior of gene caused by administration of chemical substance, Gene No. 5634 ([1]; gene group (C), Unigene No. Rn.9862) | Behavior of gene caused by administration of chemical substance, Gene No. 5726 ([1]; gene group (D), Unigene No. Rn.9939)
C−: Carcinogenicity (rodent)
Cr−: Liver carcinogenicity (liver)
M+: Mutagenicity by Ames test [2]
